{"source": "patent US6818215B2", "about": "“Antibodies to senescent cell-derived inhibiters of DNA synthesis” (priority 1991, dated 2004)", "key": {"Fibroblasts (L-929)": {"test_system": "Fibroblasts (L-929)", "experiment": "GST-SDI-1 fusion protein, thymidine incorporation", "assay_type": "cell-based, Murine", "conditions": "50 μg/ml", "method": "(§1) As indicated above, SDI-1 has the capacity to suppress the proliferation of tumor cells. […] In the experiment, 5×10^3 cells were plated overnight at 37° C. (only for adherent cells) and then incubated with the SDI fusion protein. After 48 hours at 37° C., cells were pulsed with thymidine for 24 hours and then harvested. The results of this experiment are shown in Table 8; the thymidine incorporation by untreated cells was expressed as 100%. all determinations were made in quadruplicate."}, "human cdc2 promoter": {"test_system": "human cdc2 promoter", "experiment": "CAT reporter transcription assay, cdc2-CAT", "assay_type": "cell-based", "method": "(§2) The effect of the human SDI-1 on transcription driven by two E2F-responsive promoters was determined. Proliferating A31 cells were transfected with an SDI-1 expression vector in which the SDI-1 cDNA was driven by the strong constitutive cytomegalovirus early promoter (CMV) together with a reporter vector in which the chloramphenicol acetyltransferase (CAT) gene was driven by either the hamster dihydrofolate reductase (DHFR) promoter or the human cdc2 promoter (cdc2-CAT). A31 cells are Balb/c murine 3T3 fibroblasts whose origin and growth properties have been described (Lu, K. et al., Molec. Cell. Biol. 9:3411-3417 (1989); Dimri, G. P et al., J. Biol. Chem. 269:16180-16186 (1994), herein incorporated by reference). Cells were transfected with 2 μg of expression vectors, reporters vectors (for transactivation) and the CMV-β-gal identification/normalization vector using Lipofectamine (Gibco-BRL), as described by Dimri, G. P et al. (J. Biol. Chem. 269:16180-16186 (1994), herein incorporated by reference), The vector backbone was added to the mixture as needed to equalize the amount of transfected DNA. Seventy-two hours later, the cells were lysed and assayed for chloramphenicol acetyl transferase (CAT) and β-galactosidase activity. Both DHFR and cdc2 were expressed by proliferating cells, largely due to E2F-mediated transcription that is dependent on E2F binding sites in the 5′ regulatory regions of these genes (Slansky, J. E. et al., Molec. Cell. Biol. 13:1610-1618 (1993); Dalton, S., EMBO J. 11:1797-1804 (1992)).\nThe SDI-1 expression vector, CMV-SDI-1, but not the control vector, suppressed CAT activity driven by either the DHFR or cdc2 promoter (Table 16). CMV-SDI-1 was maximally inhibitory at above 2 μg of DNA under the assay conditions used. CAT activity in Table 16 is reported in counts per minute, normalized to the β-galactosidase activity. At this concentration, CMV-SDI-1 inhibited the DHFR promoter, which contains two strong E2F binding sites (Slansky, J. E. et al., Molec. Cell. Biol. 13:1610-1618 (1993)), somewhat more strongly than the cdc2 promoter, which contains a single E2F binding site (Dalton, S., EMBO J. 11:1797-1804 (1992)) (50-70% inhibition vs 40-50% inhibition). This difference in sensitivity is consistent with the finding that the DHFR promoter is somewhat more sensitive than the cdc2 promoter to stimulation by E2F1, a component of E2F (Dimri, G. P et al., J. Biol. Chem. 269:16180-16186 (1994)). At the concentrations used here, CMV-SDI-1 inhibited DHFR-CAT and cdc2-CAT expression to approximately the same extent that it inhibited DNA replication."}, "[1]": {"test_system": "SV40 early promoter with three E2F binding sites (SV/E2F)", "experiment": "CAT reporter transcription assay, SV/E2F-CAT", "assay_type": "cell-based", "conditions": "A31 cells", "method": "as §2, with “Seventy-two hours later, the cells were lysed and assayed for chloramphenicol acetyl transferase (CAT) and β-galactosidase activity. Both DHFR and cdc2 were expressed by proliferating cells, largely due to E2F-mediated transcription that is dependent on E2F binding sites in the 5′ regulatory regions of these genes (Slansky, J. E. et al., Molec. Cell. Biol. 13:1610-1618 (1993); Dalton, S., EMBO J. 11:1797-1804 (1992)).” left out\nTo more critically ascertain whether the inhibition of transcription by SDI-1 was E2F-dependent, three E2F binding sites were inserted into the SV40 early promoter and the effect of CMV-SDI-1 on CAT activity driven by this modified promoter (SV/E2F) was determined. […]"}, "[2]": {"test_system": "Human umbilical vein endothelial cells", "experiment": "GST-SDI-1 fusion protein, thymidine incorporation", "assay_type": "cell-based", "method": "as §1"}, "Burkitt Lymphoma (Daudi)": {"test_system": "Burkitt Lymphoma (Daudi)", "experiment": "GST-SDI-1 fusion protein, thymidine incorporation", "assay_type": "cell-based, human", "conditions": "30 μg/ml", "method": "as §1"}, "Breast (T-47 D)": {"test_system": "Breast (T-47 D)", "experiment": "GST-SDI-1 fusion protein, thymidine incorporation", "assay_type": "cell-based, human", "method": "as §1"}, "[3]": {"test_system": "Lung adenocarcinoma (A-549)", "experiment": "GST-SDI-1 fusion protein, thymidine incorporation", "assay_type": "cell-based, human", "method": "as §1"}, "Glial (U-251)": {"test_system": "Glial (U-251)", "experiment": "GST-SDI-1 fusion protein, thymidine incorporation", "assay_type": "cell-based, human", "method": "as §1"}, "Hepatocellular (Hep G2)": {"test_system": "Hepatocellular (Hep G2)", "experiment": "GST-SDI-1 fusion protein, thymidine incorporation", "assay_type": "cell-based, human", "method": "as §1"}, "[4]": {"test_system": "B16 murine melanoma cell line", "experiment": "Lipofectamine liposome-mediated delivery of SDI-1 protein", "assay_type": "cell-based"}, "[5]": {"test_system": "SV40 transformed cell line GM639", "experiment": "Transient transfection of SDI-1, inhibition of DNA synthesis", "assay_type": "cell-based", "from_the_text": "(§3) This provides further evidence that SDI-1 behaves like the inhibitor previously detected in senescent cells."}, "SUSMI": {"test_system": "SUSMI", "experiment": "Transient transfection of SDI-1, inhibition of DNA synthesis", "assay_type": "cell-based", "from_the_text": "as §3"}}, "data": [{"substance": "SDI-1: senescent cell derived inhibitor of DNA synthesis, 164 amino acid protein, SEQ ID NO:2", "values": [{"measurement": "Relative Cell (% of Control)", "setting": "Fibroblasts (L-929)", "value": "4 ± 1 % of Control"}, {"measurement": "Transcription (Normalized) % Activity", "setting": "human cdc2 promoter; A31 cells (Table 17)", "value": 52, "unit": "%"}, {"measurement": "Transcription (Normalized) % Inhibition", "setting": "human cdc2 promoter; A31 cells (Table 17)", "value": 48, "unit": "%"}, {"measurement": "% Activity", "setting": "human cdc2 promoter; SDI-1 1.0 μg", "value": 50, "unit": "%"}, {"measurement": "% Inhibition", "setting": "human cdc2 promoter; SDI-1 1.0 μg", "value": 50, "unit": "%"}, {"measurement": "Normalized CAT Activity", "setting": "human cdc2 promoter; SDI-1 1.0 μg", "value": 1664, "unit": "counts per minute"}, {"measurement": "% Activity", "setting": "human cdc2 promoter; SDI-1 2.0 μg", "value": 60, "unit": "%"}, {"measurement": "% Inhibition", "setting": "human cdc2 promoter; SDI-1 2.0 μg", "value": 40, "unit": "%"}, {"measurement": "Normalized CAT Activity", "setting": "human cdc2 promoter; SDI-1 2.0 μg", "value": 2000, "unit": "counts per minute"}, {"measurement": "% Activity", "setting": "human cdc2 promoter; SDI-1 4.0 μg", "value": 61, "unit": "%"}, {"measurement": "% Inhibition", "setting": "human cdc2 promoter; SDI-1 4.0 μg", "value": 39, "unit": "%"}, {"measurement": "Normalized CAT Activity", "setting": "human cdc2 promoter; SDI-1 4.0 μg", "value": 2008, "unit": "counts per minute"}, {"measurement": "Transcription (Normalized) % Activity", "setting": "[1]", "value": 50, "unit": "%"}, {"measurement": "Transcription (Normalized) % Inhibition", "setting": "[1]", "value": 50, "unit": "%"}, {"measurement": "Relative Cell (% of Control)", "setting": "[2]; 30 μg/ml", "value": "5 ± 1 % of Control"}, {"measurement": "Relative Cell (% of Control)", "setting": "[2]; 50 μg/ml", "value": "2 ± 1 % of Control"}, {"measurement": "Relative Cell (% of Control)", "setting": "Burkitt Lymphoma (Daudi)", "value": "3 ± 0 % of Control"}, {"measurement": "Relative Cell (% of Control)", "setting": "Breast (T-47 D); 30 μg/ml", "value": "2 ± 0 % of Control"}, {"measurement": "Relative Cell (% of Control)", "setting": "Breast (T-47 D); 50 μg/ml", "value": "2 ± 0 % of Control"}, {"measurement": "Relative Cell (% of Control)", "setting": "[3]; 30 μg/ml", "value": "40 ± 1 % of Control"}, {"measurement": "Relative Cell (% of Control)", "setting": "[3]; 50 μg/ml", "value": "25 ± 3 % of Control"}, {"measurement": "Relative Cell (% of Control)", "setting": "Glial (U-251); 30 μg/ml", "value": "66 ± 4 % of Control"}, {"measurement": "Relative Cell (% of Control)", "setting": "Glial (U-251); 50 μg/ml", "value": "35 ± 2 % of Control"}, {"measurement": "Relative Cell (% of Control)", "setting": "Hepatocellular (Hep G2); 30 μg/ml", "value": "21 ± 3 % of Control"}, {"measurement": "Relative Cell (% of Control)", "setting": "Hepatocellular (Hep G2); 50 μg/ml", "value": "12 ± 2 % of Control"}, {"measurement": "3H-Tdr Uptake", "setting": "[4]; 48 hr", "value": "2134 ± 294"}, {"measurement": "Cell Number", "setting": "[4]; 48 hr", "value": "7820 ± 141"}, {"measurement": "Ratio of SDI-1 Treated to BSA Treated, 3H-Tdr Uptake", "setting": "[4]; 48 hr", "value": 0.34}, {"measurement": "Ratio of SDI-1 Treated to BSA Treated, Cell No.", "setting": "[4]; 48 hr", "value": 0.29}, {"measurement": "detection of SDI-1 in cells", "setting": "[4]; 72 hours after liposome treatment", "value": "not detectable"}, {"measurement": "3H-Tdr Uptake", "setting": "[4]; 72 hr", "value": "8765 ± 533"}, {"measurement": "Cell Number", "setting": "[4]; 72 hr", "value": "23710 ± 1485"}, {"measurement": "Ratio of SDI-1 Treated to BSA Treated, 3H-Tdr Uptake", "setting": "[4]; 72 hr", "value": 0.3}, {"measurement": "Ratio of SDI-1 Treated to BSA Treated, Cell No.", "setting": "[4]; 72 hr", "value": 0.28}, {"measurement": "fraction of cells with SDI-1 detected in the nuclei", "setting": "[4]; after 3-4 hours", "value": "½"}, {"measurement": "fraction of cells with SDI-1 detected in the nuclei", "setting": "[4]; after 9 hours", "value": "⅓"}, {"measurement": "inhibition (DNA synthesis)", "setting": "[5]", "value": "< 20", "unit": "%"}, {"measurement": "inhibition (DNA synthesis)", "setting": "SUSMI", "value": 40, "unit": "%"}]}]}
